These results are taken from patent US6884805B2, “Polymorph forms of N-(2,3-dimethyl-5,6,7,8-tetrahydrofuro[2,3-B]quinolin-4-YL)-2-(2-oxopyrrolidin-1-YL)acetamide” (Mitsubishi Pharma Corporation, priority 2001, dated 2005).

Holding throughout (format): physicochemical
Data set [1] can be described thus: Solubility in the crystallization solvent (for the supersaturability calculation). The conditions noted are these: aqueous with cosolvent or surfactant or cyclodextrin, about room temperature, read-out: solubility under the condition of crystallization. As for the experimental part:
The supersaturability of the form A crystals was calculated as follows: The supersaturability (calculation) is equal to the concentration of the dissolving N-(2,3-dimethyl-5,6,7,8-tetrahydrofuro[2,3-b]quinolin-4-yl)-2-(2-oxopyrrolidin-1-yl)acetamide divided by the solubility of N-(2,3-dimethyl-5,6,7,8-tetrahydrofuro[2,3-b]quinolin-4-yl)-2-(2-oxopyrrolidin-1-yl)acetamide under the condition of crystallization.
The solubility of N-(2,3-dimethyl-5,6,7,8-tetrahydrofuro[2,3-b]quinolin-4-yl)-2-(2-oxopyrrolidin-1-yl)acetamide under the condition of crystallization refers to the solubility of N-(2,3-dimethyl-5,6,7,8-tetrahydrofuro[2,3-b]quinolin-4-yl)-2-(2-oxopyrrolidin-1-yl)acetamide in the solvents used in crystallization at about room temperature.

A short description of data set [2]: Crystal form stability at room temperature and during storage. Conditions: for stability in storage: during storage (over time); for stability at room temperature compared with the other crystal form: room temperature (25° C.). The source says:
The form A crystal and the form B crystal of the present invention can be prepared with good reproducibility by using solvents safe for human bodies (e.g., pharmaceutically, pharmacologically, and/or physiologically acceptable). Therefore, it is far more useful as a pharmaceutical bulk or an active ingredient of a medicament.

Data set [3] can be described thus: Water solubility of saturated solutions measured by LC. As for the experimental part:
Saturated solutions of the form A crystals and the form B crystals were prepared at room temperature (25° C.). The concentrations of N-(2,3-dimethyl-5,6,7,8-tetrahydrofuro[2,3-b]quinolin-4-yl)-2-(2-oxopyrrolidin-1-yl)acetamide in each of the saturated solutions then was measured to obtain the water solubility of the form A and form B crystals.
About 20 mg of the form A crystal was weighed and put into separate tube with screwcap, then 10 mL of water were added, and the tube was capped. The tube was ultrasonicated for 5 minutes to suspend the sample. The tube then was shaken for 3 hours in an incubator, with the shaker setting at an appropriate temperature to obtain a saturated solution. The saturated solutions were filtrated using a Chromatodisk 25A (GL Science). 5 mL of the filtrate were measured, and 5 mL of the internal standard solutions (16 mg of isopropyl p-hydroxybenzoate were weighed, and 50% methanol was added to obtain 100 mL of an internal standard solutions) were added, and then 50% methanol was added to obtain 50 mL of sample solutions. 20 mg of each crystals were weighed, and then methanol was added to obtain 50 mL solutions. 5 mL of the aforementioned solutions were measured, and then 5 mL of the internal standard solutions were added, and then 50% of methanol was added to obtain 50 mL of the standard solutions. […]

Data set [4] in a line: Conversion of form B crystal to form A crystal in stirred water suspension. The conditions noted are these: 0.5 g in 10 mL water, stirred 24 hours, confirmed by powder X-ray diffraction. As for the experimental part: A suspension was prepared by adding 0.5 g of form B crystals of N-(2,3-dimethyl-5 ,6,7,8-tetrahydrofuro [2,3-b]quinolin-4-yl)-2-(2-oxopyrrolidin-1-yl)acetamide to 10 mL of water. […] The powder X-ray diffraction pattern of the resulting crystals was measured to confirm that the resulting crystals were form A crystals.

For orientation: solubility means how much of the substance goes into solution per volume.

In brackets after ≈: the same amount, converted by molar mass. Entries after “also recorded” stand apart in the source; their conditions may differ. Like-named read-outs stand apart in the source and are kept apart here.

As for `Cc1oc2nc3c(c(NC(=O)CN4CCCC4=O)c2c1C)CCCC3` [N-(2,3-dimethyl-5,6,7,8-tetrahydrofuro[2,3-b]quinolin-4-yl)-2-(2-oxopyrrolidin-1-yl)acetamide], the figures for the solubility in data set [1] (10% methanol) and in data set [1] (60% methanol) were 0.41 mg/mL (≈ 1.2 mM) and 28.1 mg/mL (≈ 82.2 mM), respectively.
In the case of `Cc1oc2nc3c(c(NC(=O)CN4CCCC4=O)c2c1C)CCCC3` [form A crystal, N-(2,3-dimethyl-5,6,7,8-tetrahydrofuro[2,3-b]quinolin-4-yl)-2-(2-oxopyrrolidin-1-yl)acetamide], the stability in storage entry in data set [2] is listed as “good stability; also recorded: greater stability”. Moreover, the “stability at room temperature compared with the other crystal form” value in data set [2] is recorded as “extremely stable; also recorded: better stability”; in data set [2] (listed as form A), “more stable”.
For the compound `Cc1oc2nc3c(c(NC(=O)CN4CCCC4=O)c2c1C)CCCC3` [form B crystal, N-(2,3-dimethyl-5,6,7,8-tetrahydrofuro[2,3-b]quinolin-4-yl)-2-(2-oxopyrrolidin-1-yl)acetamide], the “solubility (in words)” value in data set [3] (summary statement) is listed as “good solubility”. In data set [3] (water, at 25° C. and over a relatively wide temperature range (FIG. 4)), the “solubility compared with the form A crystal” value is listed as “higher”. Also, in data set [2], the stability in storage result is on record as “worse stability” and the “stability at room temperature compared with the other crystal form” value was “worse stability”. The “crystal form after stirring a suspension in water” value in data set [4] is on record as “resulted in the form A crystals”.
